The values that follow come from patent publication US5258385A, “β-Carboline-derived compounds, lamchart benzodiazepine-receptor ligands, having an inverse agonist and antagonist effect on benzodiazepines, and drugs containing them” (Centre National de la Recherche Scientifique (CNRS), priority 1991, dated 1993).

The subject of data set [1] is benzodiazepine receptor. Briefly: In vitro binding to benzodiazepine receptor, displacement of 3H-flunitrazepam, rat brain cortical membranes. (In a radioligand displacement assay an active substance lowers the binding of a labelled ligand.)
Data set [2] has as its system benzodiazepine receptor. Briefly: In vivo behavior and antagonism of diazepam sedation in mice. The note with it: sc. The protocol: The antagonist properties of the lactone were also assessed in vivo in mice.
In data set [3] the test system is benzodiazepine receptor. Briefly: Effect on current in xenopus oocyte expressing the benzodiazepine receptor (mRNA). The class given is cell-based. The source says:
The effect of the lactone on the benzodiazepine receptor expressed was first expressed, using the corresponding messenger RNA, in xenopus oocyte.

The conditions of data set [4]: anxiolytic, anti-convulsant and the like; cited from earlier work.
Data set [5] relates to learning and information retention. The conditions noted are these: man; cited from earlier work.
Data set [6] concerns convulsions caused by other agents such as pentylenetetrazole. The conditions noted are these: cited from earlier work.
Data set [7] addresses central receptors for benzodiazepines. The note with it: in vitro, rat brain; read-out: IC50 binding to central receptors for benzodiazepines; cited from earlier work.
A further data set concerns learning and memory. The conditions noted are these: cited from earlier work.

For `O=C1OC(CO)c2c1ncc1[nH]c3ccccc3c21` (stereo not drawn) [Compound No. 3, 10-Hydroxymethylbutanolide[2.3-]-β-Carboline], the “affinity relative to diazepam (20 nM)” value in the data set on benzodiazepine receptor [1] (times higher than diazepam) is recorded as 100 times. In the data set with benzodiazepine receptor [1] (times higher than β-CCE), the “affinity relative to β-CCE (4 nM)” value is given as 20 times. Also, in the data set with benzodiazepine receptor [2] (5 mg/kg), the “convulsant or sedative effect in mice” value is “neither convulsant nor sedative” and the “effect on behavior of mice” value is “produces no effect on their behavior”. In addition, the “antagonism of sedation caused by diazepam” value with benzodiazepine receptor [2] (compound 5 or 10 mg/kg, diazepam 7.5 mg/kg) is “completely avoided”. Also, in the data set with benzodiazepine receptor [3] (lactone (10^6 M [sic]) simultaneously with 10^5 M (so in the source) GABA), the “effect on GABA-generated current in oocyte” value was “no increase or decrease was observed in the current”. For the same compound, in the data set with benzodiazepine receptor [3] (lactone (10^6 M [sic]), diazepam (10^6 M [sic])), the “inhibition of the increase in current generated by diazepam” value is listed as “inhibits substantially the increase in the current”. In addition, the “receptor profile in oocyte test” value with benzodiazepine receptor [3] (with GABA) was “behaves, in this test, like an antagonist of the benzodiazepine receptor”.

Turning to `CCOC(=O)c1ncc2[nH]c3cccc(OCc4ccccc4)c3c2c1COC` [ZK 91296], the “properties in vivo compared with diazepam” value in data set [4] is given as “properties similar to those of diazepam in vivo”.

Consider `CCOC(=O)c1ncc2[nH]c3ccc(OCc4ccccc4)cc3c2c1COC` [ZK 93423], for which the “properties in vivo compared with diazepam” value in data set [4] was “properties similar to those of diazepam in vivo”.

As for `CCOC(=O)c1ncc2[nH]c3cccc(OC(C)C)c3c2c1C` [ZK 93426], the “learning and information retention” value in data set [5] is “improve learning and information retention in man”.

A word on the IC50: it is the concentration at which inhibition is half-maximal. Take `CCOC(=O)c1cc2c(cn1)[nH]c1ccccc12` [β-CCE, ethyl ester of β-carboline-3-carboxylic acid]: the “in vivo pharmacological effects compared with benzodiazepines” value in data set [6] (in vivo) was “opposed to those of benzodiazepines”. Besides, the proconvulsant effect result in data set [6] (mice) is “proconvulsant in mice which facilitates the convulsions caused by other agents such as pentylenetetrazole”. Besides, the IC50 in data set [7] was 4 nM.

As for `COC(=O)c1cc2c(cn1)[nH]c1ccccc12` [β-CCM], the “effect on learning and memory” value in the data set with learning and memory (in vivo) is “positive effect on learning and memory”. The convulsant activity result with learning and memory (prevented testing in man) is on record as “highly convulsant activity”.
